Where “and” joins values, the source holds several entries; their conditions need not be identical. Identical values can stand only once. Where no end group is shown, it is not given here.
Key:
[1] = system: Acinetobacter baumannii (ATCC 13304); assay type: cell-based
Description: (§1) Hylin-Pul3 and six derivatives (dHP3-31, dHP3-50, dHP3-50.137, dHP3-50.190, dHP3-84, and dHP3-84.39) were tested against two Gram-positive bacteria, Staphylococcus aureus (ATCC 25923) and Streptococcus mutans (ATCC 25175), as well as three Gram-negative bacteria: Escherichia coli (ATCC 25922), Klebsiella pneumoniae (ATCC 13883), and Acinetobacter baumannii (ATCC 13304). The minimal inhibitory concentration (MIC) was determined using the microbroth dilution.
(§2) The peptides were serially diluted in concentrations ranging 128 to 0.25 μM, with gentamicin serving as a positive control, which was serially diluted to concentrations of 20 to 0.04 μM. Bacterial cultures were prepared in Mueller–Hinton (MH) medium to achieve a final inoculum concentration of 5 × 10^5 CFU/mL. […] All tests were performed in duplicate and repeated across three independent experiments.

[2] = system: Escherichia coli (ATCC 25922); assay type: cell-based
Description: as §1, §2

[3] = system: Klebsiella pneumoniae (ATCC 13883); assay type: cell-based; details: ATCC 13883
Description: as §1, §2

[4] = system: Staphylococcus aureus (ATCC 25923); assay type: cell-based
Description: as §1, §2

[5] = system: Streptococcus mutans (ATCC 25175); assay type: cell-based
Description: as §1, §2

E. coli (ATCC 25922) = experiment: Synergistic checkerboard assay; assay type: cell-based, Escherichia coli
Description: Briefly, working solutions of the peptides were prepared and serially diluted by half across the rows and columns of a microplate, ensuring that each well contained a unique combination of peptide concentrations. The starting concentrations corresponded to the respective MIC values of each peptide, followed by two-fold serial dilutions.
Each well was filled with 50 µL of the peptide solution (individual or combined) and 50 µL of a bacterial suspension (1 × 10^6 CFU/mL), resulting in a final bacterial concentration of 5 × 10^5 CFU/mL. The individual peptide solutions served as positive controls, while the MH medium was employed as a negative control. The microplates were incubated at 37 °C overnight. The test was performed in three independent experiments. The fractional inhibitory concentrations index (ΣFIC) was calculated using the following equation: (1) ∑FIC =MIC(A) in combination/MIC(A) alone+MIC(B) in combination /MIC(B) alone
The FIC index (ΣFIC) was interpreted as follows: ΣFIC ≤ 0.5 indicated synergy; 0.5 < ΣFIC ≤ 4 indicated no effect; and 4 < ΣFIC indicated antagonism.

[6] = DPPH radical-scavenging activity; details: peptides 0.1, 0.05, 0.025 mg/mL, 30 min dark 25 °C, absorbance 515 nm, triplicate
Description: A stock solution of 60 µM 1,1-diphenyl-2-picrylhydrazyl (DPPH) was prepared in ethanol, with its absorbance adjusted to 0.7 at 515 nm immediately before the assay using a Shimadzu 1240 UV–visible spectrophotometer (Kyoto, Japan). The peptides were dissolved in PBS, and 20 µL aliquots of each peptide solution were incubated with 180 µL of the ethanolic DPPH solution in triplicate, at final concentrations of 0.1, 0.05, and 0.025 mg/mL. For the negative control, 20 µL of PBS was mixed with 180 µL of the DPPH solution, while 20 µL of Trolox (6-hydroxy-2,5,7,8-tetramethylchroman-2-carboxylic acid) served as the positive control and standard. The mixtures were incubated in the dark at 25 °C for 30 min, after which, the absorbance was measured at 515 nm. The reduction in absorbance, indicative of DPPH-scavenging activity, was compared to a standard curve. The results were expressed as milligrams of Trolox equivalents per milligram of peptide (mg Trolox equivalents/mg of peptide).

ABTS assay = details: peptides 0.05, 0.025, 0.0125 mg/mL, 1 h dark, absorbance 734 nm, triplicate
Description: The 2,2-azinobis-3-ethylbenzothiazoline-6-sulfonic acid (ABTS^+) free radical-scavenging activity was determined following the method in [38]. The ABTS⁺ radical cation was generated by diluting a 245 mM ammonium persulfate (APS) solution at a ratio of 1:100 with a 7 mM ABTS solution, followed by overnight incubation in the dark at room temperature. The ABTS^+ solution was then diluted with water to obtain an absorbance of 0.70 at 734 nm immediately before the assay using a Shimadzu 1240 UV-visible spectrophotometer (Kyoto, Japan). The peptides were dissolved in PBS, and 10 µL aliquots of each peptide solution were incubated with 190 µL of the ABTS^+ solution in triplicate, at final concentrations of 0.05, 0.025, and 0.0125 mg/mL. After a 1 h incubation in the dark, the absorbance was measured at 734 nm. The radical-scavenging activity was quantified against a standard curve, with the results expressed as milligrams of Trolox equivalents per milligram of peptide.

[7] = Carboxyfluorescein (CF) release from LUVs; set-up: species or system E. coli; details: at the lowest peptide concentrations (8, 32, 50, 64 μM tested); 10 min, ex 490 nm/em 517 nm, duplicate
Description: Large unilamellar vesicles (LUVs) were prepared with the total lipid extract of E. coli (Avanti Polar Lipids). For this, an aliquot of 1 mg of lipids dissolved in chloroform was deposited into a glass tube and dried by evaporation with nitrogen (N2). The glass tube underwent vacuum treatment to eliminate any residual solvent traces. The lipids were then hydrated in 200 μL of a 5,6-carboxyfluorescein (CF) solution (Sigma-Aldrich) at a concentration of 49 mM, pH 8, and 431 mOsm/kgH2O through nine cycles of heating (70 °C for 30 s), vortexing (1 min), and freezing (ice bath for 30 s). A polycarbonate filter with a pore size of 100 nm was employed to standardize the liposome size. Twenty-one extrusion cycles were conducted at 40 °C through the filter, resulting in LUVs with an average diameter of 100 nm. Size exclusion chromatography (Sephadex G-25) was utilized to remove the CF outside of the LUVs.
The fluorescence spectra of the CF-filled LUVs were measured using a FluoroMax3 Jobin Yvon spectrofluorometer (Horiba Jobin Yvon; Edison, NJ, USA). A 200 μL aliquot of the LUVs containing 100 μM CF was utilized for the experiment. Excitation was performed over a wavelength range of 400 to 540 nm, with the emission recorded at 517 nm. The peptides were added at various final concentrations (8, 32, 50, and 64 μM), and the fluorescence was assessed 10 min after each addition. […]

[8] = system: Human primary fibroblasts; assay type: cell-based; details: MTT, 24 h
Description: Human primary fibroblasts were kindly provided by CellSeq Solutions (Belo Horizonte, Brazil) and cultured in DMEM (Dulbecco’s Modified Eagle’s Medium, Gibco, Waltham, MA, USA) supplemented with 10% (v/v) fetal bovine serum (FBS; Gibco, Waltham, MA, USA) and a 1000 U/mL penicillin/streptomycin solution (Gibco, Waltham, MA, USA). The cells were maintained at 5% CO2, 37 °C, and 95% humidity.
To investigate the impact of the antimicrobial peptides hylin-Pul3, dHP3-31, dHP3-50, dHP3-50.137, dHP3-50.190, dHP3-84, and dHP3-84.39 on primary human fibroblast proliferation and viability, the 3-(4,5-dimethylthiazol-2-yl)-2,5-diphenyl tetrazolium bromide (MTT) metabolization assay (Sigma Aldrich; Misuri, USA) was performed. Human fibroblast cells (7 × 10^3 cells/well) were plated in a 96-well plate and treated with 0.5, 1, 5, 10, 25, 50, and 100 μg/mL of each peptide for 24 h. After this period, the cells were incubated with 5 mg/mL MTT for 4 h. The formazan crystals formed were solubilized by adding dimethyl sulfoxide (DMSO). The absorbance was measured at 570 nm using a spectrophotometer (Multiskan™ FC Microplate Photometer; Thermo Fisher Scientific, Waltham, MA, USA).

[9] = versus parent peptide hylin-Pul3

For RAGALWPAIRGAIKKIIKK-NH2 [dHP3-50.137], which “Antimicrobial Activity (MIC) A. baumannii ATCC 13304” value [1] is on record?
The value was 8.0 ± 0.0 µM.

What about the “Reduction in MIC against A. baumannii compared to hylin-Pul3” value [1, 9] of the same substance?
The value was 4 fold.

And the “Antimicrobial Activity (MIC) E. coli ATCC 25922” value [2]?
Its value is 4.0 ± 0.0 µM.

What about the “Reduction in MIC of up to (Gram-negative strains) compared to hylin-Pul3” value ([2]; strain not given, largest reduction) of the same substance?
Its value is “up to 8 fold”.

And the “Reduction in MIC against E. coli compared to hylin-Pul3” value [2, 9]?
Its value is 4 fold.

And the “Antimicrobial Activity (MIC) K. pneumoniae ATCC 13883” value [3]?
Its value is 53.3 ± 16.5 µM.

And the “Antimicrobial Activity (MIC) S. aureus ATCC 25923” value [4]?
The value was 64.0 ± 0.0 µM.

And the “Antimicrobial Activity (MIC) S. mutans ATCC 25175” value [5]?
Its value is 32.0 ± 0.0 µM.

And the “Synergistic Activity, FIC Index (ΣFIC)” value (E. coli (ATCC 25922); combination of dHP3-84 and dHP3-50.137, E. coli ATCC 25922, 5 × 10^5 CFU/mL, 37 °C overnight, three independent experiments, ΣFIC ≤ 0.5 = synergy)?
The value was 0.5.

And the “Improvement of combined activity compared to each peptide individually” value (E. coli (ATCC 25922); dHP3-84 + dHP3-50.137, E. coli)?
Its value is 2 fold.

What about the “Antioxidant activity DPPH” value [6] of the same substance?
Its value is “did not reveal significant activity”.

What about the “Antioxidant activity ABTS” value (ABTS assay) of the same substance?
The value was 0.08 mg Trolox/mg.

What about the “CF release from LUVs” value [7] of the same substance?
Its value is 50%.

What does the source list for RRGKLIPRLAKAIGRLIRK-OH [dHP3-84.39]?
Antimicrobial Activity (MIC) A. baumannii ATCC 13304 [1]: 16.0 ± 0.0 µM; Antimicrobial Activity (MIC) E. coli ATCC 25922 [2]: 6.6 ± 4.8 µM; Antimicrobial Activity (MIC) K. pneumoniae ATCC 13883 [3]: 64.0 ± 0.0 µM; Antimicrobial Activity (MIC) S. aureus ATCC 25923 [4]: 26.6 ± 8.3 µM; Antimicrobial Activity (MIC) S. mutans ATCC 25175 [5]: >64 µM; Concentration at which fibroblast viability increased (proliferative effect) [8]: 5 μg/mL and 2.3 µM; CF release from LUVs [7]: 50%

Source: PMC11939955, “Enhancing Antimicrobial Peptides from Frog Skin: A Rational Approach” (Biomolecules, 2025)
